Usually boiling point stands for the temperature of boiling at a given pressure. As a reminder, the melting point is the temperature of the solid-liquid transition.

Conditions in one data set: not given
Compound `CCCC(=O)OCC(C)C` had a boiling point of 157 °C.

In turn, `O=C(O)COc1ccccc1C(=O)O` yielded a melting point of 191 °C.

Turning to `C/C=C(\C)C(=O)OCC`, the boiling point is 156 °C.

In turn, `CC(C)(Cl)Cl` showed a boiling point of 69.3 °C and a melting point of -33.8 °C.

Regarding `COc1ccc2c(c1)C(=O)c1ccccc1C2=O`, the log10 vapour pressure (mmHg) is -10.2.

`CC(=O)c1ccc(Cl)s1`: the melting point turned out to be 52 °C.

`O=C(O)C(I)I` came in with a melting point of 110 °C.

Regarding `COc1cc([N+](=O)[O-])ccc1N`, the melting point came to 141 °C and the ready biodegradability result is reported as “not readily biodegradable”.

Turning to `COCC(=O)c1ccccc1`, the boiling point stood at 245 °C and the melting point was found to be 8 °C.

Turning to `CC(=O)c1c(O)c(C)c(O)c(Cc2c(O)c3c(c(C(=O)/C=C/c4ccccc4)c2O)OC(C)(C)C=C3)c1O`, the melting point is 212 °C.

Turning to `C[C@]12CC[C@@H]3c4ccc(OC(=O)N(CCCl)CCCl)cc4CC[C@H]3[C@@H]1CC[C@@H]2O`, the melting point was 104 °C.

In turn, `CCCCCCC(C)NC(C)CCCCCC` (configuration not stated) yielded a boiling point of 283 °C.

Regarding `ClCC(CCl)(CCl)CCl`, the melting point is 97 °C.

As to `NCC1CCCCC1`, the boiling point was 160 °C.

As for `O=[N+]([O-])c1c(Cl)ccc2ccccc12`, the melting point was found to be 99.5 °C.

Compound `C#CC(C)(O)C(C)C` (configuration not stated) displayed a boiling point of 134 °C.

As to `c1ccc(N2CCCCC2)cc1`, the boiling point amounted to 258 °C and the melting point worked out at 4.7 °C.

Take `NC(=O)N1c2ccccc2CC(=O)c2ccccc21`: the melting point came to 216 °C.

As for `O=C(O)c1c(Cl)cc(Cl)cc1Cl`, the melting point stood at 162 °C.

Regarding `C=CC(C)(C)C`, the boiling point is 41.2 °C, the log10 vapour pressure (mmHg) turned out to be 2.63 and the melting point was -115 °C.

Take `CCCCCCCCCCCCC#N`: the boiling point worked out at 293 °C and the melting point worked out at 9.7 °C.

As to `CC(Cl)(Cl)C(=O)OCCOc1cc(Cl)c(Cl)cc1Cl`, the melting point was found to be 49.5 °C.

For `C1=CCC=C1`, the boiling point stood at 41 °C, the log10 vapour pressure (mmHg) was 2.64 and the melting point is -85 °C.

The compound `Clc1cccc(Oc2ccccc2)c1` showed a log10 vapour pressure (mmHg) of -2.42.

Turning to `CCCCc1cc(C)ccc1O`, the boiling point is 228 °C and the melting point came out at 19 °C.

With `CC1=CC(=O)C=CC1=O`, the melting point came out at 69 °C.

Compound `COC1=C[C@H](C)[C@H]2C[C@H]3OC(O)C[C@H]4C(C)=C(OC)C(=O)C([C@@]34C)[C@@]2(C)C1=O` (some centres not stated) registered a melting point of 227 °C.

Compound `CCOC(=O)C(F)F` gave a boiling point of 100 °C.

`CCOC(=O)C(C)(C)C`: the boiling point amounted to 118 °C, the log10 vapour pressure (mmHg) is 1.25 and the melting point is -89.5 °C.

Turning to `c1ccc(N2CCN(c3ccccc3)CC2)cc1`, the melting point amounted to 165 °C.

`CCCCCCCCCCCCCCCCCCOP1OCC2(CO1)COP(OCCCCCCCCCCCCCCCCCC)OC2` (configuration not stated): the ready biodegradability result is recorded as “readily biodegradable”.

For `Cc1ccc(C(C)C)cc1`, the boiling point is 177 °C, the log10 vapour pressure (mmHg) turned out to be 0.19, the melting point is -68.5 °C and the ready biodegradability entry is given as “readily biodegradable”.

On to `CCCCS(=O)CCCC`, for which the melting point stood at 32.6 °C.

In turn, `Clc1cccc(Cl)c1-c1ccccc1` came in with a log10 Henry constant (atm·m³/mol) of -3.64.

Turning to `CC(C)c1cccc(C(C)C)c1N`, the boiling point came out at 257 °C and the melting point was -45 °C.

In the case of `CCNc1nc(Cl)nc(NCC(=O)OCC)n1`, the melting point was 228 °C.

`CC(C)=CC(C)(C)C` registered a boiling point of 105 °C, a log10 vapour pressure (mmHg) of 1.56 and a melting point of -106 °C.

With `NNS(=O)(=O)c1ccccc1`, the melting point was found to be 102 °C.

For the compound `O=C(O)CCCCCCCF`, the melting point is 35 °C.

Compound `CC[C@H](CC[C@@H](C)[C@H]1CC[C@H]2[C@@H]3CC=C4C[C@@H](O)CC[C@]4(C)[C@H]3CC[C@]12C)C(C)C` yielded a melting point of 144 °C.

`Cc1ccccc1NC(=N)Nc1ccccc1C` displayed a melting point of 179 °C.

With `C=C(C)C(=O)OCCN(CC)CC`, the ready biodegradability result was “readily biodegradable”.

In the case of `NC(=S)N=C(N)N`, the melting point stood at 172 °C.

Regarding `CCOC(=O)C1CCCCC1`, the boiling point is 196 °C.

`O=[N+]([O-])c1ccc(Oc2ccccc2)c([N+](=O)[O-])c1` yielded a melting point of 71 °C.

`Cc1ccccc1C=Cc1ccccc1C`: the melting point was 83 °C.

With `N=C(N)NC(=O)c1nc(Cl)c(N)nc1N`, the melting point was 241 °C.

`CCCCCOC(=O)CCCCC` showed a boiling point of 226 °C and a melting point of -47 °C.

`CCC=C(C)C=O` returned a boiling point of 136 °C.

Regarding `O/N=C\c1ccccc1`, the boiling point stood at 200 °C and the melting point was 36.5 °C.

Turning to `O=C(Cl)C(F)(F)C(F)(F)C(F)(F)F`, the boiling point is 38.5 °C.

As to `O=C1CCCCCCCCC1O` (configuration not stated), the melting point came to 42 °C.

`CCOC(=O)N1CCN(C(=O)OCC)CC1`: the boiling point was 315 °C and the melting point turned out to be 47 °C.

For the compound `CC(=O)Nc1ccc(C#N)cc1`, the melting point amounted to 207 °C.

`Oc1ccc2c(c1)[nH]c1ccccc12` had a melting point of 272 °C.

With `COc1cc(NS(=O)(=O)c2ccc(N)cc2)nc(C)n1`, the melting point was 146 °C.

Consider `O=C(O)C(Br)C(Br)C(=O)O` (configuration not stated), for which the ready biodegradability result was “not readily biodegradable”.

`Oc1nc2ccccc2s1` yielded a boiling point of 360 °C and a melting point of 139 °C.

`CC(=O)OCC(=O)[C@@]1(O)CC[C@H]2[C@@H]3CCC4=CC(=O)CC[C@]4(C)[C@H]3C(=O)C[C@@]21C`: the melting point turned out to be 222 °C.

As to `O=C(C(F)(F)F)C(F)(F)F`, the boiling point was -27.4 °C, the log10 vapour pressure (mmHg) came to 3.35 and the melting point is -125 °C.

Still in this data set, the particulars now being: fish.
`O=[N+]([O-])c1ccc(Cl)c(Cl)c1Cl` returned a log10 BCF of 2.2 and a log10 biotransformation half-life (days) of -0.19.

`COC(=O)C(C)Oc1ccc(Oc2ncc(C(F)(F)F)cc2Cl)cc1` (configuration not stated) gave a log10 BCF of 1.23 and a log10 biotransformation half-life (days) of -1.08.

Turning to `c1ccc2c(c1)ccc1c3ccccc3ccc21`, the log10 biotransformation half-life (days) was determined as 0.59.

In turn, `Clc1cc2c(cc1Cl)Oc1c(Cl)c(Cl)c(Cl)c(Cl)c1O2` yielded a log10 BCF of 4 and a log10 biotransformation half-life (days) of 1.27.

Turning to `O=C(O)C(Br)C(Br)C(=O)O` (configuration not stated), the log10 BCF came to 0.81.

The values above are taken from the OPERA property sets (Mansouri et al. 2018).
